Measured values published in US9883669B2, “Maintenance medium for primate pluripotent stem cells” (priority 2014, dated 2018).

Test system: human iPS cells (253G1 lines and 201B7 lines)
Assay: Observation of colony morphology of human iPS cells by light microscope
Assay type: cell-based
Conditions: xylose 3 g/L, 0, 24, 48, 72 hours, KSR
Protocol: During culture period, medium change was performed daily.
For a xylose medium for iPS cells in which xylose concentrations were 3 g/L and 15 g/L, the morphology of iPS cell colonies at 96 and 120 hours after culture was also observed with a light microscope (IX70, manufactured by Olympus Corporation).

| SMILES | colony morphology and proliferation inhibitory effects, D-xylose versus L-xylose |
| --- | --- |
| O=C[C@H](O)[C@@H](O)[C@H](O)CO [D-xylose] | no differences |
| O=C[C@@H](O)[C@H](O)[C@@H](O)CO [L-xylose] | no differences |
